The target of test [1] is C5a2 (Homo sapiens, UniProt Q9P296). Nature of the test: DiscoveRx PathHunter β-arrestin 2 recruitment, C5a2. As to conditions: 100 μM, data not shown. The test is classed as cell-based. Details: purchased DiscoveRx Corporation (Birmingham, UK). (In general: Arrestin recruitment assays detect the binding of arrestin to an activated receptor.)
The subject of test [2] is ERK1/2 activation in HMDM. Nature of the test: ERK1/2 phosphorylation assay (Alphascreen Surefire) in HMDM. The test is classed as cell-based, human. As to conditions: for inhibition of C5a-induced ERK1/2 activation in HMDM: 30 min pre-incubation, then C5a 5 nM for 10 min; for direct ERK1/2 activation in HMDM: peptide alone. How it is done: FIG. 5 is a graph showing that P32 and P59 inhibit C5a-induced ERK1/2 activation in HMDM. pERK quantified by Surefire ERK1/2 kit. Data is normalised to C5a 5 nM (100%) for each donor. Data are representative of at least three independent experiments HMDM donors performed in triplicate (n=3-5). Error bars represent SEM. **** P<0.0001 by one-way ANOVA followed by Dunnett's post hoc test.
ERK1/2 phosphorylation assays were performed using the Alphascreen Surefire ERK1/2 kit (Perkin Elmer) as per manufacturers' instructions. Briefly, HMDM were seeded at 50 000 cells/well in 96-well tissue culture plates (Nunc, Waltham, Mass., USA) and serum starved overnight. Ligands were prepared in serum-free media. P32 and P59 were pre-incubated with cells for 30 min at 37° C. and 5% CO2, prior to the addition of C5a (5 nM) for 10 min at 37° C. and 5% CO2. Media was then removed and cells lysed with lysis buffer for 10 min on a shaker, 4 μL of lysate was transferred to a white 384-well proxiplate plate (Perkin Elmer) and incubated in the presence of 7 μL of reaction mix. The plate was sealed with TopSeal-A, incubated for 2 h at 37° C. and measured on an M1000Pro plate reader (Tecan, Mannedorf, Switzerland).
A general note: Alpha assays give light when donor and acceptor beads are brought close together.

In test [3] the target is T1, C5aR1 (Homo sapiens, UniProt P21730).
T1 sequence (P21730 1-350): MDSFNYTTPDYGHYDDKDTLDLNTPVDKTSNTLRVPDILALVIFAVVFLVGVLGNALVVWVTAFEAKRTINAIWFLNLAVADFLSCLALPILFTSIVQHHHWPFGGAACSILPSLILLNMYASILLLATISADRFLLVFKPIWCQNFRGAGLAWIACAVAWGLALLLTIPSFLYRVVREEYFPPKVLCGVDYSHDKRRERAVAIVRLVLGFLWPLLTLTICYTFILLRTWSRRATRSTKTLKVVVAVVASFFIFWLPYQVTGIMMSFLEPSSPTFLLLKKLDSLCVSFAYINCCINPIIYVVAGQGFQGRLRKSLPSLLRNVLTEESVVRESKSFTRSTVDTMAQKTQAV
Nature of the test: 125I-C5a binding to C5aR1 membranes. The note with it: up to a maximum concentration of 500 μM.

Test [4] deals with LPS stimulated HMDM. The test can be described thus: Cytokine release from LPS stimulated HMDM (ELISA). The test is classed as cell-based, human. As to conditions: for IL-6 release from LPS stimulated HMDM / IL-10 release from LPS stimulated HMDM / TNFα release from LPS stimulated HMDM: 24 h after co-stimulation with LPS 10 ng/ml, peptides 0.1-100 μM; for IL-6 release from LPS stimulated HMDM in the presence of PMX53: C5a1 antagonist PMX53 10 μM pre-incubated 30 min. On the procedure: FIG. 4 is a panel of graphs showing the testing P32 and P59 for effects on cytokine release from LPS stimulated HMDM. Measurement of human inflammatory cytokines IL-6 (4A, 4B), TNFα (4C, 4D) and IL-10 (4E, 4F) release from HMDM, 24 h after co-stimulation with LPS (10 ngml^−1) and C5a (0.1-100 nM), P32 or P59 (0.1-100 μM) with or without C5a1 antagonist PMX53 (10 μM) present. Cytokine release was quantified by ELISA. Data is representative of five independent HMDM donors performed in triplicate (n=5). CTRL represents non-stimulated HMDM. Data is normalised to LPS response (100%) for each donor. Error bars represent SEM. *P<0.05, ** P<0.01, *** P<0.001, **** P<0.0001 by one-way ANOVA followed by Dunnett's post hoc test or Sidak's post hoc test for comparisons+/−PMX53.
Briefly, HMDMs were seeded in 96 well tissue culture plates (Nunc) at 100 000 cells/well and allowed to adhere overnight at 37° C. and 5% CO2. The next day HMDMs were stimulated with E. coli derived LPS (10 ng ml^−1) only or LPS (10 ng ml^−1) and either C5a or C5a2 ligands at various concentrations (1-100 nM (C5a) or 0.1-100 μM (C5a2 ligands)). For testing cytokine release in the presence of C5a1 antagonist (PMX53), cells were pre-incubated with PMX53 at 10 μM for 30 min prior to addition of C5a or C5a2 ligands. Following ligand addition HMDMs were returned to 37° C. and 5% CO2 incubator and 24 h after stimulation supernatant was removed from cells and transferred to 96 well polypropylene microplate (Nunc) and stored at −20° C. till needed for assay. Quantification of cytokine release was performed using ELISA kits (BD OptEIA™) as per manufacturers' instructions (BD Biosciences, San Jose, Calif., USA).
Background: In an ELISA, binding on a coated surface is turned into a signal by an enzyme label.

Test [5] deals with C5a-induced neutrophil mobilization. The test can be described thus: C5a-induced neutrophil mobilization in wild-type mice. The test is classed as in vivo, C57BL/6J wild-type mice. As to conditions: P32 3 mg/kg i.v. with C5a 50 μg/kg, 30 min. How it is done:
(§1) FIG. 6 is a panel of graphs showing that P32 inhibits C5a-induced neutrophil mobilization in vivo in a C5aR2 dependent manner. Neutrophil mobilization quantified 30 min after i.v. injection of PBS, C5a (50 μg/kg), or P32 (3 mg/kg) with and without C5a present into the femoral vein of either C57BL/6J wild-type (6A) or C5aR2^−/− (6B) on a C57BL/6J background mice. Total circulating leukocyte counts were determined from blood smears and total white blood cell counts using a hemocytometer. Data are representative from at least 6 mice per treatment group and blood smears in triplicate (n=6). Error bars represent SEM. * P<0.05, *** P<0.001 by one-way ANOVA followed by Dunnett's post hoc test
(§2) To further explore the selectivity of the ligands P32 was tested in a mouse model of C5a-induced neutrophil mobilization (FIG. 6). […] Assuming a mouse blood volume of 2 mL for a 25 g mouse, a concentration of 3 mg/kg would result in Cmax blood concentrations of ˜50 uM, a dose within the active range of this compound from our in vitro studies

For test [6] the test system is unchanged. The test can be described thus: C5a-induced neutrophil mobilization in C5aR2-/- mice. Format: in vivo, C5aR2-/- mice on a C57BL/6J background. The note with it: P32 3 mg/kg i.v. with C5a 50 μg/kg, 30 min. How it is done: as §1, §2

Chain of C5a2 (Q9P296 whole entry): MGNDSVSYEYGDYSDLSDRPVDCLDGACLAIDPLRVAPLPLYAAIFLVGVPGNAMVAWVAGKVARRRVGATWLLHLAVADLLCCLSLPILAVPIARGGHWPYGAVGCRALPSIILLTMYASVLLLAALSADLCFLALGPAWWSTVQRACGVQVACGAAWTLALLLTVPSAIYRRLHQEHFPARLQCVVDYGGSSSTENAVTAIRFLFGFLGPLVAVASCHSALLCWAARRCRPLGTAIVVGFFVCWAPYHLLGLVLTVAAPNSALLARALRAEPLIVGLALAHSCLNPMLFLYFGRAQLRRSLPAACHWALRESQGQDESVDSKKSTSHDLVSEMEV

“Ac-LIRLWR-OH [Peptide P59, Ac-LIRLWR-OH]”: the “ligand induced β-arrestin 2 recruitment at C5a2 (PathHunter)” value in test [1] was “showed activity at C5a2”. Also, in test [2], the “inhibition of C5a-induced ERK1/2 activation in HMDM” value is given as “significantly inhibit” and the “direct ERK1/2 activation in HMDM” value is listed as “Neither P32 or P59 could induce ERK1/2 activation alone”. Besides, in test [3], the “inhibition of 125I-C5a binding to C5aR1 membranes, full concentration response” value is recorded as “dose-dependently inhibited”. Further, in test [4], the “IL-6 release from LPS stimulated HMDM” value is “only showed significant inhibition of IL-6 at 100 μM”, the “IL-10 release from LPS stimulated HMDM” value is recorded as “no effect”, the “TNFα release from LPS stimulated HMDM” value is “no effect” and the “IL-6 release from LPS stimulated HMDM in the presence of PMX53” value was “unaffected”.
Turning to “Ac-RHYPYWR-OH [Peptide P32, Ac-RHYPYWR-OH]”, in test [1], the “ligand induced β-arrestin 2 recruitment at C5a2 (PathHunter)” value is listed as “showed activity at C5a2”. In test [5], the “inhibition of C5a-induced neutrophil mobilization” value was “significantly inhibit”. In addition, in test [6], the “inhibition of C5a-induced neutrophil mobilization” value is “attenuated”. Moreover, in test [2], the “inhibition of C5a-induced ERK1/2 activation in HMDM” value is “significantly inhibit” and the “direct ERK1/2 activation in HMDM” value is on record as “Neither P32 or P59 could induce ERK1/2 activation alone”. For the same substance, the “inhibition of 125I-C5a binding to C5aR1 membranes, full concentration response” value in test [3] is given as “dose-dependently inhibited”. In addition, in test [4], the “IL-6 release from LPS stimulated HMDM” value was “significant inhibition of IL-6 release at two (10 and 100 μM) of the four doses tested”; the “IL-10 release from LPS stimulated HMDM” value is given as “no effect”; the “TNFα release from LPS stimulated HMDM” value was “no effect”; the “IL-6 release from LPS stimulated HMDM in the presence of PMX53” value is on record as “unaffected”.

The values are drawn from patent publication US10280197B2, “Discovery of the first selective C5A receptor 2 (C5L2/C5AR2) ligands” (The Regents of the University of California, priority 2015, dated 2019).
